Assay results: US12590106B2, “Spiromacrocyclic orexin 2 receptor agonists” (H. Lundbeck A/S, priority 2023, dated 2026)

Columns and labels:
human Ox2R = molecular target: T1, human Ox2R (Homo sapiens, UniProt O43614); assay: Measurement of OX2R agonist activity (cell-based calcium release assay); details: hOx2R-CHO Flp-In cells, n≥2 tests; for EC50: intracellular calcium, read-out: EC50; for Emax: normalized to assay buffer (0%) and 10 μM Danavorexton (100%), read-out: Emax (%)
T1 construct: The gene encoding hOx2R was subcloned into the expression plasmid pcDNA5/FRT/TO; expressed in transfected cells; host or cells: CHO Flp-In cells (pcDNA5/FRT/TO with pOG44 Flp recombinase vector, hygromycin B selection)
T1 sequence (O43614 1-444): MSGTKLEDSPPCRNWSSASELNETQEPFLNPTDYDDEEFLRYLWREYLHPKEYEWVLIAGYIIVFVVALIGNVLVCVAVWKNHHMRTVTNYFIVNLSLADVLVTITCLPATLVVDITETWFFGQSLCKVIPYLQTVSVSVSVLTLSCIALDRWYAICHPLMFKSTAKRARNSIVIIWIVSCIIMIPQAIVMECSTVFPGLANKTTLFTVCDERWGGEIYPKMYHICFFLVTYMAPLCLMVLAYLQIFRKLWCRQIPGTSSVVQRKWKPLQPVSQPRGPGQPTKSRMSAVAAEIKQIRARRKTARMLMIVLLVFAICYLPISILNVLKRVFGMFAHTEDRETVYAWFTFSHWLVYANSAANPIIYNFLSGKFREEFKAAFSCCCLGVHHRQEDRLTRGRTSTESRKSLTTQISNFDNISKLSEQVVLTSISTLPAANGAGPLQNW
Outline: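 CHO Flp-In cells stably expressing human Ox2R, dye-loaded 1 h at 37 °C in HBSS/20 mM HEPES pH 7.4 with 2.5 mM probenecid and 10 mM CaCl2, then stimulated with compound.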

P-gp (MDR1) = molecular target: T2, P-gp (MDR1) (Homo sapiens, UniProt P08183); assay: MDR1-MDCKII assay (bidirectional transport); type: in vitro ADME; details: MDCK-MDR1, pH 7.4, test compound 0.5 μM, MDR1-MDCKII monolayer; for efflux ratio at 0.5 μM: read-out: ER (efflux ratio); for Papp A→B at 0.5 μM: apical to basolateral
T2 construct: host or cells: MDCKII (canine kidney) cells transfected with human MDR1
T2 sequence (P08183 whole entry): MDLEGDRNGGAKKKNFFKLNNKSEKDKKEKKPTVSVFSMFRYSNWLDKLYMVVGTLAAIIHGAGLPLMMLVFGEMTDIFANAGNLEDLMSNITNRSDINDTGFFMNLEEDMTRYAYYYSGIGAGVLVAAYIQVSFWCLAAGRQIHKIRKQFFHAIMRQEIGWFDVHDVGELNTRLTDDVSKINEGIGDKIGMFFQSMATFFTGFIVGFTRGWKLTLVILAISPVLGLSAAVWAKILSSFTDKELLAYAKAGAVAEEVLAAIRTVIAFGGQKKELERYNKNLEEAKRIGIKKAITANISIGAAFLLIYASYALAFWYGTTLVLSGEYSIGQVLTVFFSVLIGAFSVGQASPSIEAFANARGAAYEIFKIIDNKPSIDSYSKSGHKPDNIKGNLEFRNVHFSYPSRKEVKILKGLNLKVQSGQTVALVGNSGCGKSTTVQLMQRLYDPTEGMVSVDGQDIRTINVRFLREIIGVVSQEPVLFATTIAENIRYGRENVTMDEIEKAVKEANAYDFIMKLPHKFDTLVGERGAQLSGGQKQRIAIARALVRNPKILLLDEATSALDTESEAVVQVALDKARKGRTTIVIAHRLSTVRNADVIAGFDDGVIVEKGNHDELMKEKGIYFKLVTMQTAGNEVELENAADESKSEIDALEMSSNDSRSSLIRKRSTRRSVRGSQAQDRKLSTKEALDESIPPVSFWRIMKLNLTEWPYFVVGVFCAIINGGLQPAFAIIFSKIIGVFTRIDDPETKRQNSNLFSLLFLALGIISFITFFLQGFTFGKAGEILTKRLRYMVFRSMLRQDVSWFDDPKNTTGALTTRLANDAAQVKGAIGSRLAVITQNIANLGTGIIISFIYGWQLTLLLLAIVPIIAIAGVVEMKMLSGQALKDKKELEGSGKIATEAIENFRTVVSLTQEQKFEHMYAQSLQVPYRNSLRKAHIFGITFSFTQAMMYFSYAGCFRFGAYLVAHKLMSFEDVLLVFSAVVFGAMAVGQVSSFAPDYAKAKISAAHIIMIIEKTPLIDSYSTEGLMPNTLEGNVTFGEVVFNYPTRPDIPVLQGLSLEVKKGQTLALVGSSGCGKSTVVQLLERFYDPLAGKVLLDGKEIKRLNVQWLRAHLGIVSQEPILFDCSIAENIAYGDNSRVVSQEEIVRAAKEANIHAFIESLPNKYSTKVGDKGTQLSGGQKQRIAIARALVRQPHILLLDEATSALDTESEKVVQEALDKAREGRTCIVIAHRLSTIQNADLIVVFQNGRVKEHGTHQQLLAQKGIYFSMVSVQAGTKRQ
Description: Bidirectional transport in MDCKII cells transfected with human MDR1 were assessed according to previously published methodology (Langthaler, K. et al. (2024). Fluids Barriers CNS, 21 (11): 1-15). In brief, cells obtained from the Netherlands Cancer Institute were maintained at 37° C. in α-MEM containing 10% FBS, 100 μg/mL penicillin-G, 100 μg/mL streptomycin, 1% non-essential amino acid under culture conditions of 5% CO2 and 95% relative humidity. Transport of test compound (0.5 μM, 0.4% DMSO final concentrations) across the cell monolayer was determined in triplicate on a single test occasion along with controls for low and high permeability (fenoterol and metoprolol, 2 μM) and P-gp efflux (digoxin, 10 μM). Each compound was loaded onto either the apical side (75 μL) or basolateral side (275 μL) with transport buffer (1% BSA in HBSS with 10 mM HEPES (pH 7.4)) on the opposing side of the cells (e.g. 50 μL or 250 μL on the apical or basolateral side). A sample (25 μL) from the donor compartment was taken 30 s after test compound is loaded onto the plate, resulting in a final incubation volume of 50 μL and 250 μL on apical and basolateral sides respectively. At the end of the incubation period, samples (75 μL) were taken from both sides. The donor samples (25 μL) were firstly diluted with transport buffer (50 μL) and then all samples were quenched in acetonitrile (125 μL) containing internal analytical standards. After centrifugation (20 min, 3220 g, 4° C.) the supernatants were analysed by LC-MS/MS. The apparent permeability coefficient (Papp) and efflux ratio (ER) were calculated using the equations below; where dCr/dt is the compound concentration in the receiver chamber as a function of time (μM/s); Vr is the solution volume in the receiver chamber; A is the surface area of the cell monolayer; C0 is the initial concentration in the donor compartment; and Papp A-B and Papp B-A refer to the apparent permeabilities in the respective directions. Compound permeability is classified as low, moderate, or high according to Papp value binning classifications: <1, 1 to 6 or >6×10^−6 cm/s, respectively. The ER is employed to classify compounds as unlikely, possible, or likely P-gp substrates when ER was: <1.5, 1.5 to <2 or >2, respectively.

SMILES	EC50 (human Ox2R)	Emax (human Ox2R)	efflux ratio at 0.5 μM (P-gp (MDR1))	Papp A→B at 0.5 μM (P-gp (MDR1))
CS(=O)(=O)N[C@H]1CC[C@@]2(Cc3cc(c(F)cc3F)-c3cc(F)cc(F)c3OCc3coc2n3)C1 [Example 30, N-[(1′S,14R)-4,6,17,19-tetrafluorospiro[8,12-dioxa-21-azatetracyclo[14.3.1.110,13.02,7]henicosa-1(19),2,4,6,10,13(21),16(20),17-octaene-14,3′-cyclopentane]-1′-yl]methanesulfonamide]	0.077 nM	97%	1.8	9.04 ×10⁻⁶ cm/s
CS(=O)(=O)N[C@H]1CC[C@@]2(Cc3cc(c(F)cc3F)-c3cccc(F)c3OCc3csc2n3)C1 [Example 36, N-[(1′S,14R)-6,17,19-trifluorospiro[8-oxa-12-thia-21-azatetracyclo[14.3.1.110,13.02,7]henicosa-1(19),2,4,6,10,13(21),16(20),17-octaene-14,3′-cyclopentane]-1′-yl]methanesulfonamide]	0.058 nM	100%	1.1	8.23 ×10⁻⁶ cm/s
CS(=O)(=O)N[C@H]1CC[C@@]2(Cc3cc(c(F)cc3F)-c3cccc(F)c3OCc3coc2n3)C1 [Example 39, N-[(1′S,14R)-6,17,19-trifluorospiro[8,12-dioxa-21-azatetracyclo[14.3.1.110,13.02,7]henicosa-1(19),2,4,6,10,13(21),16(20),17-octaene-14,3′-cyclopentane]-1′-yl]methanesulfonamide]	0.035 nM	97%	1.1	10.2 ×10⁻⁶ cm/s
CS(=O)(=O)N[C@H]1CC[C@@]2(CO[C@H]3CC[C@H](CC3)c3cccc(n3)OCc3coc2n3)C1 [Example 42, N-[(1s,1′S,13S,16s)-spiro[7,11,15-trioxa-21,22-diazatetracyclo[14.2.2.12,6.19,12]docosa-2,4,6(22),9,12(21)-pentaene-13,3′-cyclopentane]-1′-yl]methanesulfonamide]	0.062 nM	98%	1	13 ×10⁻⁶ cm/s
CS(=O)(=O)NC1CC[C@@]2(CO[C@H]3CC[C@H](CC3)c3cccc(F)c3OCc3coc2n3)C1 (stereo partly drawn) [Example 100, N-[(1R,1′S,14S,17R)-6-fluorospiro[8,12,16-trioxa-22-azatetracyclo[15.2.2.110,13.02,7]docosa-2,4,6,10,13(22)-pentaene-14,3′-cyclopentane]-1′-yl]methanesulfonamide]	0.037 nM	100%	1.8	10.2 ×10⁻⁶ cm/s
O=S(=O)(N[C@H]1CC[C@@]2(Cc3cc(c(F)cc3F)-c3cccc(F)c3OCc3coc2n3)C1)C1CC1 [Example 104, N-[(1′S,14R)-6,17,19-trifluorospiro[8,12-dioxa-21-azatetracyclo[14.3.1.110,13.02,7]henicosa-1(19),2,4,6,10,13(21),16(20),17-octaene-14,3′-cyclopentane]-1′-yl]cyclopropanesulfonamide]	0.08 nM	100%	1.6	9.52 ×10⁻⁶ cm/s
O=S(=O)(CF)N[C@H]1CC[C@@]2(Cc3ccc(F)c(c3)-c3cccc(F)c3OCc3coc2n3)C1 [Example 113, N-[(1′S,14R)-6,19-difluorospiro[8,12-dioxa-21-azatetracyclo[14.3.1.110,13.02,7]henicosa-1(20),2,4,6,10,13(21),16,18-octaene-14,3′-cyclopentane]-1′-yl]-1-fluoro-methanesulfonamide]	0.054 nM	95%	1.3	6.47 ×10⁻⁶ cm/s
O=S(=O)(N[C@H]1CC[C@@]2(Cc3ccc(F)c(c3)-c3cccc(F)c3OCc3coc2n3)C1)C1(F)CC1 [Example 116, N-[(1′S,14R)-6,19-difluorospiro[8,12-dioxa-21-azatetracyclo[14.3.1.110,13.02,7]henicosa-1(20),2,4,6,10,13(21),16,18-octaene-14,3′-cyclopentane]-1′-yl]-1-fluoro-cyclopropanesulfonamide]	0.068 nM	98%	1.5	3.87 ×10⁻⁶ cm/s
CS(=O)(=O)N[C@@H]1C[C@]2(Cc3ccc(F)c(c3)-c3cccc(F)c3OCc3coc2n3)[C@H]2C[C@@H]12 [Example 117, N-[(1′R,2′R,5′S,14R)-6,19-difluorospiro[8,12-dioxa-21-azatetracyclo[14.3.1.110,13.02,7]henicosa-1(20),2,4,6,10,13(21),16,18-octaene-14,4′-bicyclo[3.1.0]hexane]-2′-yl]methanesulfonamide]	0.048 nM	100%	1.9	9.31 ×10⁻⁶ cm/s
